Source: the supplement of paper PMC10307832

Legend:
Assay in all cases: relative viability (nuclei count vs DMSO), 5 days (fraction); higher = more cells survive
[1] = compound: C1COCCN1C2=NC(=NC3=C2OC4=C3C=CC=N4)C5=CC(=CC=C5)NC(=O)C6=CN=C(C=C6)N + CC(=O)c1c(C)c2cnc(Nc3ccc(N4CCNCC4)cn3)nc2n(C2CCCC2)c1=O [Palbociclib] (partner 0.5 µM)
Method in brief: (§1)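 Lung cancer cell lines in 1536-well plates got either a single drug or a fixed anchor-drug dose together with five library-drug doses (not always all listed) in √10 steps, by pin tool, on the day after seeding. Nuclei were counted after 5 days, and relative viability is the treated-to-vehicle ratio of nuclei counts. Values are medians of duplicate plates.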

[2] = compound: C1COCCN1C2=NC(=NC3=C2OC4=C3C=CC=N4)C5=CC(=CC=C5)NC(=O)C6=CN=C(C=C6)N + CS(=O)(=O)N1CCN(Cc2cc3nc(-c4cccc5[nH]ncc45)nc(N4CCOCC4)c3s2)CC1 [Pictilisib] (partner 1 µM)
Method in brief: as §1

[3] = compound: Nc1ccccc1NC(=O)c1ccc(CNC(=O)OCc2cccnc2)cc1 [Entinostat] + CC1(C)CCC(c2ccc(Cl)cc2)=C(CN2CCN(c3ccc(C(=O)NS(=O)(=O)c4ccc(N[C@H](CCN5CCOCC5)CSc5ccccc5)c(S(=O)(=O)C(F)(F)F)c4)cc3)CC2)C1 [Navitoclax] (partner 0.5 µM)
Method in brief: as §1

[4] = compound: Nc1ccccc1NC(=O)c1ccc(CNC(=O)OCc2cccnc2)cc1 [Entinostat] + C[C@]1(O)C[C@@H](c2nc(-c3ccc4ccc(-c5ccccc5)nc4c3)c3c(N)nccn32)C1 [Linsitinib] (partner 1 µM)
Method in brief: as §1

Cell Line | relative viability ([1]; first compound 0.02 µM) | relative viability ([1]; first compound 0.06325 µM) | relative viability ([1]; first compound 0.2 µM) | relative viability ([1]; first compound 0.6325 µM) | relative viability ([1]; first compound 2 µM) | relative viability ([2]; first compound 0.02 µM) | relative viability ([2]; first compound 0.06325 µM) | relative viability ([2]; first compound 0.2 µM) | relative viability ([2]; first compound 0.6325 µM) | relative viability ([2]; first compound 2 µM) | relative viability ([3]; first compound 0.02 µM) | relative viability ([3]; first compound 0.06325 µM) | relative viability ([3]; first compound 0.2 µM) | relative viability ([3]; first compound 0.6325 µM) | relative viability ([3]; first compound 2 µM) | relative viability ([4]; first compound 0.02 µM) | relative viability ([4]; first compound 0.06325 µM) | relative viability ([4]; first compound 0.2 µM) | relative viability ([4]; first compound 0.6325 µM) | relative viability ([4]; first compound 2 µM)
LC-2-ad | 0.518 | 0.484 | 0.469 | 0.526 | 0.396 | 0.441 | 0.51 | 0.526 | 0.443 | 0.487 | 0.387 | 0.289 | 0.264 | 0.17 | 0.134 | 0.769 | 0.831 | 0.7 | 0.489 | 0.219
NCI-H3122 | 0.182 | 0.187 | 0.164 | 0.186 | 0.16 | 0.621 | 0.588 | 0.531 | 0.515 | 0.451 | 1.04 | 1 | 1.12 | 0.989 | 0.712 | 1.02 | 1.03 | 1.07 | 1.08 | 0.868
LCLC-97TM1 | 0.226 | 0.26 | 0.236 | 0.323 | 0.162 | – | 0.173 | 0.217 | 0.235 | 0.184 | 0.341 | 0.358 | 0.473 | 0.308 | 0.272 | 0.158 | 0.147 | 0.139 | 0.165 | 0.14
NCI-H520 | 0.206 | 0.236 | 0.226 | 0.207 | 0.189 | 0.302 | 0.327 | 0.274 | 0.293 | 0.179 | 1.02 | 1.02 | 1.21 | 0.916 | 0.456 | 1.03 | 1.05 | 1.09 | 0.897 | 0.412
NCI-H1792 | 0.661 | 0.74 | 0.605 | 0.463 | 0.384 | 0.26 | 0.27 | 0.258 | 0.17 | 0.288 | 0.729 | 0.674 | 0.576 | 0.535 | 0.222 | 0.476 | 0.502 | 0.392 | 0.276 | 0.153
NCI-H1755 | 0.418 | 0.481 | 0.442 | 0.426 | 0.365 | 0.481 | 0.494 | 0.377 | 0.405 | 0.357 | 1.05 | 0.954 | 0.806 | 0.451 | 0.332 | 0.984 | 0.988 | 0.866 | 0.625 | 0.412
EPLC-272H | 0.313 | – | 0.313 | 0.37 | 0.329 | 0.292 | 0.297 | 0.264 | 0.308 | 0.288 | 1.12 | 0.956 | 0.979 | 0.424 | 0.365 | 1.2 | 1.22 | 0.697 | 0.627 | 0.405
NCI-H2228 | 0.934 | 0.817 | 0.407 | 0.64 | 0.621 | 0.486 | 0.346 | 0.38 | 0.234 | 0.256 | 1.03 | 0.758 | 0.52 | 0.365 | 0.349 | 0.587 | 0.635 | 0.578 | 0.365 | 0.354
